Patent US8865623B2, “Herbicidally active cyclic diones and derivatives thereof, processes for their preparation, compositions, and method of controlling weeds” (Syngenta Limited, priority 2009, dated 2014)

Experiments:
Assay type in all cases: in vivo
[1] = test system: Lolium perenne (LOLPE); experiment: Pre-emergence herbicidal activity, glasshouse pot test; conditions: evaluated after 13 days; for pest or weed control at 250 g/ha: Lolium perenne, 312 h, Rate 250 g/ha, read-out: Pre-emergence activity LOLPE (100=total damage to plant; 0=no damage to plant)
Procedure, shortened: (§1)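 Plants in standard-soil pots, glasshouse at 24/16° C, 14 h photoperiod, 65% humidity. Aqueous spray (acetone/water 50:50 formulation, 0.5% Tween 20) applied pre-emergence at day 1 or post-emergence at day 8. Percent damage recorded after 13 days.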

[2] = test system: Avena fatua (AVEFA); experiment: as above; conditions: evaluated after 13 days; for pest or weed control at 250 g/ha: Avena fatua, 312 h, Rate 250 g/ha, read-out: Pre-emergence activity AVEFA (100=total damage to plant; 0=no damage to plant)
Procedure, shortened: as §1

[3] = test system: Alopecurus myosuroides (ALOMY); experiment: as above; conditions: evaluated after 13 days; for pest or weed control at 250 g/ha: Alopecurus myosuroides, 312 h, Rate 250 g/ha, read-out: Pre-emergence activity ALOMY (100=total damage to plant; 0=no damage to plant)
Procedure, shortened: as §1

[4] = test system: Echinochloa crus-galli (ECHCG); experiment: as above; conditions: evaluated after 13 days; for pest or weed control at 250 g/ha: Echinochloa crus-galli, 312 h, Rate 250 g/ha, read-out: Pre-emergence activity ECHCG (100=total damage to plant; 0=no damage to plant)
Procedure, shortened: as §1

[5] = test system: Lolium perenne (LOLPE); experiment: Post-emergence herbicidal activity, glasshouse pot test; conditions: rate 250 g/ha, evaluated after 13 days; for pest or weed control at 250 g/ha: Lolium perenne, 312 h, read-out: Post-emergence activity LOLPE (100=total damage to plant; 0=no damage to plant)
Procedure, shortened: as §1

[6] = test system: Avena fatua (AVEFA); experiment: as above; conditions: rate 250 g/ha, evaluated after 13 days; for pest or weed control at 250 g/ha: Avena fatua, 312 h, read-out: Post-emergence activity AVEFA (100=total damage to plant; 0=no damage to plant)
Procedure, shortened: as §1

[7] = test system: Alopecurus myosuroides (ALOMY); experiment: as above; conditions: rate 250 g/ha, evaluated after 13 days; for pest or weed control at 250 g/ha: Alopecurus myosuroides, 312 h, read-out: Post-emergence activity ALOMY (100=total damage to plant; 0=no damage to plant)
Procedure, shortened: as §1

[8] = test system: Echinochloa crus-galli (ECHCG); experiment: as above; conditions: rate 250 g/ha, evaluated after 13 days; for pest or weed control at 250 g/ha: Echinochloa crus-galli, 312 h, read-out: Post-emergence activity ECHCG (100=total damage to plant; 0=no damage to plant)
Procedure, shortened: as §1

Row | Compound | pest or weed control at 250 g/ha ([1]; pre-emergence spray) [%] | pest or weed control at 250 g/ha ([2]; pre-emergence spray) [%] | pest or weed control at 250 g/ha ([3]; pre-emergence spray) [%] | pest or weed control at 250 g/ha ([4]; pre-emergence spray) [%] | pest or weed control at 250 g/ha ([5]; glasshouse) [%] | pest or weed control at 250 g/ha ([6]; glasshouse) [%] | pest or weed control at 250 g/ha ([7]; glasshouse) [%] | pest or weed control at 250 g/ha ([8]; glasshouse) [%] | further results
1 | CCc1ccc(Oc2nc3ccc(OC)cc3s2)cc1C1=C(O)C(C)(C)OC(C)(C)C1=O [Example A-214] | 40 | 30 | 50 | 90 | 100 | 70 | 100 | 100 | –
2 | CCc1ccc(Oc2ccc(C(F)(F)F)cc2[N+](=O)[O-])cc1C1=C(O)[C@@H]2CC[C@](C)(C1=O)C2(C)C [Example A-327] | 90 | 20 | 70 | 100 | 70 | 90 | 80 | 100 | –
3 | CCc1ccc(Oc2cc(Cl)c(Cl)nn2)cc1C1=C(O)C(C)(C)OC(C)(C)C1=O [Example A-129] | 10 | 0 | 10 | 30 | 10 | 10 | 10 | 30 | –
4 | CC1(C)OC(C)(C)C(O)=C(c2cc(Oc3cc(C#N)ccc3F)ccc2C2CC2)C1=O [Example A-358] | – | – | – | – | – | – | – | – | pest or weed control at 250 g/ha ([1]; pre-emergence): 90%; pest or weed control at 250 g/ha ([2]; pre-emergence): 0%; pest or weed control at 250 g/ha ([3]; pre-emergence): 60%; pest or weed control at 250 g/ha ([4]; pre-emergence): 90%; pest or weed control at 250 g/ha [5]: 60%; pest or weed control at 250 g/ha [6]: 60%; pest or weed control at 250 g/ha [7]: 90%; pest or weed control at 250 g/ha [8]: 100%
5 | CCc1ccc(Oc2ccc(F)cc2)cc1C1=C(O)CC(C)(C)CC1=O [Example A-28] | 40 | 0 | 20 | 70 | 40 | 20 | 30 | 80 | –
6 | CCc1ccc(Oc2ccc(C#N)cc2F)cc1C1=C(OC(=O)OC)C(C)(C)OC(C)(C)C1=O [Example P-4] | – | – | – | – | – | – | – | – | LOLPE damage to plant (100=total damage to plant; 0=no damage to plant) ([1]; pre-emergence, rate 250 g/ha): 100; AVEFA damage to plant (100=total damage to plant; 0=no damage to plant) ([2]; pre-emergence, rate 250 g/ha): 60; ALOMY damage to plant (100=total damage to plant; 0=no damage to plant) ([3]; pre-emergence, rate 250 g/ha): 80; ECHCG damage to plant (100=total damage to plant; 0=no damage to plant) ([4]; pre-emergence, rate 250 g/ha): 100; LOLPE damage to plant (100=total damage to plant; 0=no damage to plant) [5]: 90; AVEFA damage to plant (100=total damage to plant; 0=no damage to plant) [6]: 60; ALOMY damage to plant (100=total damage to plant; 0=no damage to plant) [7]: 90; ECHCG damage to plant (100=total damage to plant; 0=no damage to plant) [8]: 100
7 | CCc1ccc(Oc2ccc(Cl)cc2Cl)cc1C1=C(O)CCCC1=O [Example A-40] | 50 | 20 | 50 | 80 | 30 | 40 | 30 | 90 | –
8 | CCc1ccc(Oc2cc(Cl)ncn2)cc1C1=C(O)C(C)(C)OC(C)(C)C1=O [Example A-98] | 60 | 20 | 40 | 80 | 30 | 60 | 70 | 100 | –
9 | CCc1ccc(Oc2ncc(Cl)cn2)cc1C1=C(O)C(C)(C)OC(C)(C)C1=O [Example A-107] | 100 | 80 | 90 | 100 | 40 | 80 | 80 | 100 | –
10 | CC1(C)OC(C)(C)C(O)=C(c2cc(Oc3ccc(Cl)cc3)ccc2C2CC2)C1=O [Example A-349] | – | – | – | – | – | – | – | – | pest or weed control at 250 g/ha ([1]; pre-emergence): 90%; pest or weed control at 250 g/ha ([2]; pre-emergence): 10%; pest or weed control at 250 g/ha ([3]; pre-emergence): 40%; pest or weed control at 250 g/ha ([4]; pre-emergence): 100%; pest or weed control at 250 g/ha [5]: 80%; pest or weed control at 250 g/ha [6]: 0%; pest or weed control at 250 g/ha [7]: 60%; pest or weed control at 250 g/ha [8]: 100%
11 | CCc1ccc(Oc2ccc(C(F)(F)F)cc2Br)cc1C1=C(O)C(C)(C)OC(C)(C)C1=O [Example A-78] | 100 | 80 | 100 | 100 | 90 | 90 | 100 | 90 | –
12 | CCc1ccc(Oc2ncc(Cl)cc2Cl)cc1C1=C(O)C(C)(C)OC(C)(C)C1=O [Example A-44] | 100 | 100 | 100 | 100 | 100 | 100 | 100 | 100 | –
